Experiments:
Assay type in all cases: toxicity, cell-based
[1] = tested on: HEK-293T; test: Incucyte cell viability with HEK293T; settings: human, 10 µM, compound concentration 10 uM
[2] = tested on: Fibroblast; test: Incucyte cell viability with human fibroblast; settings: 10 µM, compound concentration 10 uM
[3] = tested on: U2OS; test: Incucyte cell viability with U2OS; settings: human, 10 µM, compound concentration 10 uM
[4] = 0 h, replicate number 1, timepoint 0 hours
[5] = 6 h, replicate number 1, timepoint 6 hours
[6] = 12 h, replicate number 1, timepoint 12 hours
[7] = 18 h, replicate number 1, timepoint 18 hours
[8] = 24 h, replicate number 1, timepoint 24 hours
[9] = 6 h, replicate number 2, timepoint 6 hours
[10] = 0 h, replicate number 2, timepoint 0 hours
[11] = 12 h, replicate number 2, timepoint 12 hours
[12] = 18 h, replicate number 2, timepoint 18 hours
[13] = 24 h, replicate number 2, timepoint 24 hours
Also: filed as whole numbers so only -1 and 0 and 1 occur.

SMILES	Growth Rate [1, 4]	Growth Rate [1, 5]	Growth Rate [1, 6]	Growth Rate [1, 7]	Growth Rate [1, 8]	Growth Rate [2, 4]	Growth Rate [2, 5]	Growth Rate [2, 6]	Growth Rate [2, 7]	Growth Rate [2, 8]	Growth Rate [3, 4]	Growth Rate [3, 9]	Growth Rate [3, 6]	Growth Rate [3, 7]	Growth Rate [3, 8]	Growth Rate [1, 10]	Growth Rate [3, 5]	Growth Rate [2, 11]	Growth Rate [3, 11]	Growth Rate [3, 12]	other results
N[C@H](C(=O)O)c1ccc(C(=O)O)c(C(=O)O)c1	0	1	1	1	1	0	1	1	1	0	0	1	1	1	1						
O=C(O)c1ccc(-c2coc3ncc(-c4ccccc4)cc23)cc1Cl	0	0	0	0	0		1	0	0	0		0	1	1	1	1	1				Growth Rate [1, 9]: 1; Growth Rate [2, 10]: 0; Growth Rate [2, 9]: 0; Growth Rate [3, 10]: 0
CCOc1cc(N2CCC(O)CC2)ccc1Nc1ncc2c(n1)N(C)c1ccccc1C(=O)N2C	0				1	1	1	1	1	1	0		1	1	1	1	0				Growth Rate [1, 9]: 1; Growth Rate [1, 11]: 1; Growth Rate [1, 12]: 1; Growth Rate [1, 13]: 0; Growth Rate [2, 9]: 0; Growth Rate [3, 10]: 1
COc1cc(-c2cn([C@H]3CCc4c(F)cccc4N(CC(F)(F)F)C3=O)nn2)ccc1-n1cnc(C)c1	0	0	0	1	1	0	0	1	1	1	0	1	0	0	0	1	0	0	1	1	Growth Rate [1, 13]: 0; Growth Rate [2, 12]: 0; Growth Rate [2, 13]: 0; Growth Rate [3, 13]: 1
Cc1cccc(-c2cnc3occ(-c4ccc(C(=O)O)c(C5CCCC5)c4)c3c2)c1	1			1	1		0	0	0	0	0		1	0	1	0	0		0	1	Growth Rate [2, 10]: 1
CS(=O)(=O)NC[C@H]1CC[C@H](Nc2nc3c(s2)CCSc2ccccc2-3)CC1		0	0	0	0	0	0	1	1	0	0		0	0	1	0	0		1		
Cc1cc(F)c(C(=O)Nc2cccc(-c3nncn3C(C)C)n2)cc1-n1cnc(C2CC2)c1 [SELONSERTIB]		0	0	0	0	0		1	1	1	0		0	0	1	1	0				Growth Rate [3, 13]: 0
Cc1cccc([C@H](C)c2c[nH]cn2)c1C.Cl [DEXMEDETOMIDINE HYDROCHLORIDE]	0	0	0	0	0	0				1	0	0	1	0	1			1		1	Growth Rate [2, 12]: 1
COc1cc2c(cc1OCCCN1CCCC1)N=C(N)C21CCC1	0					0			1	1	0		1	1	1		1	0			
